Data as given in US8450357B2, “Compositions comprising an aryl pyrazole and/or a formamidine, methods and uses thereof” (Merial Limited, priority 2008, dated 2013).
Like-named read-outs stand apart in the source and are kept apart here.

How the values were obtained:
[1] = Solubility of amitraz in various solvents; assay type: physicochemical
Protocol: Solutions of amitraz in certain solvents at high concentration result in the appearance of crystals over time. […] The solubility of amitraz in butyl acetate is lower then in anisole, MIK and ethyl benzoate. […] Additionally, when amitraz (25%) in butyl acetate formulations were stored at 50° C. in a chamber, they evaporated slightly. […] Again, lowering concentration to 20% and addition of co-solvents with higher solubility of amitraz avoided crystallization of amitraz. Unexpectedly, this addition of co-solvents caused the effects described below in Example 9.

[2] = system: adult brown dog ticks (Rhipicephalus sanguineus); assay: Tick DMSO contact assay, Compound 1 with reduced dosages of amitraz, Example 16; assay type: in vivo
Protocol: Scintillation vials were treated with commercial and experimental compounds using the same procedure described in Example 12 above. The treated vials were used to determine the contact toxicity of compounds against adult brown dog ticks (Rhipicephalus sanguineus). The ticks were supplied by Ecto Services Inc. Henderson, N.C.
Unfed adult ticks were released into a metal pan and 10 living ticks were aspirated into each vial. […] Two replicates were tested for each treatment and the results were averaged. Ticks were stimulated by gently exhaling in the vials. Within the same time period, the addition of amitraz to an equal dosage of compound 1 increased mean mortality.

[3] = system: ticks (Rhipicephalus sanguineus); assay: Study B: tick efficacy of Compound 1 spot-on formulations in dogs; assay type: in vivo
Text: A separate clinical efficacy study in dogs was designed with an untreated control group and 5 test groups treated with compound 1. Each group had six dogs. Test articles were formulated as topical spot-on solutions containing compound 1, 10-20% w/v in a solvent or a combination of solvents as described above. Dogs were infested with approximately 50 ticks (Rhipicephalus sanguineus) on days −1, 7, 14, 21, 28, 35 and 42. Dogs were also infested with approximately 100 fleas (Ctenocephalides felis) on days −1, 8, 15, 22, 29, 36, and 43. Treatment was applied by parting the hair and applying the formulation directly onto the skin on one spot at the midline of the neck, between the base of the skull and the shoulder blades. […] […] It should be noted that Study A and Study B were conducted at different times and locations, and the results of each clinical study may differ from the other based on various environmental factors. Thus, the results of one clinical study should not be compared with those of another due to these factors.

[4] = 14C radiolabeled drug, spot-on administration, beagle dogs; cited from earlier work
[5] = 4 h, read-out: 4 hour % Mortality Rep 1
[6] = 4 h, read-out: 4 hour % Mortality Rep 2
[7] = 4 h, read-out: 4 hour Avg. % Mortality
[8] = 24 h, read-out: 24 hour % Mortality Rep 1
[9] = 24 h, read-out: 24 hour % Mortality Rep 2
[10] = 24 h, read-out: 24 hour Avg. % Mortality
[11] = 48 h, read-out: 48 hour % Mortality Rep 1
[12] = 48 h, read-out: 48 hour % Mortality Rep 2
[13] = 48 h, read-out: 48 hour Avg. % Mortality

Cc1ccc(/N=C/N(C)/C=N/c2ccc(C)cc2C)c(C)c1 [Amitraz, amitraz]
Solubility of amitraz (at room temperature, %) ([1]; in Acetone): 37.87% | Solubility of amitraz (at room temperature, %) ([1]; in Anisole (methoxybenzene)): 45.54% | Solubility of amitraz (at room temperature, %) ([1]; in Benzyl acetate): 21.85% | Solubility of amitraz (at room temperature, %) ([1]; in Benzyl benzoate): 33.30% | Solubility of amitraz (at room temperature, %) ([1]; in Butyl acetate): 27.10% | Solubility of amitraz (at room temperature, %) ([1]; in Ethyl benzoate): 39.43% | Solubility of amitraz (at room temperature, %) ([1]; in Methyl isobutyl ketone): 36.72% | mortality at 3.13 ppm [2, 5]: 0% | mortality at 6.25 ppm [2, 5]: 0% | mortality at 12.5 ppm [2, 5]: 0% | mortality at 3.13 ppm [2, 6]: 0% | mortality at 6.25 ppm [2, 6]: 0% | mortality at 12.5 ppm [2, 6]: 0% | mortality at 3.13 ppm [2, 7]: 0% | mortality at 6.25 ppm [2, 7]: 0% | mortality at 12.5 ppm [2, 7]: 0% | mortality at 3.13 ppm [2, 8]: 0% | mortality at 6.25 ppm [2, 8]: 0% | mortality at 12.5 ppm [2, 8]: 0% | mortality at 3.13 ppm [2, 9]: 0% | mortality at 6.25 ppm [2, 9]: 0% | mortality at 12.5 ppm [2, 9]: 0% | mortality at 3.13 ppm [2, 10]: 0% | mortality at 6.25 ppm [2, 10]: 0% | mortality at 12.5 ppm [2, 10]: 0% | mortality at 3.13 ppm [2, 11]: 0% | mortality at 6.25 ppm [2, 11]: 0% | mortality at 12.5 ppm [2, 11]: 0% | mortality at 3.13 ppm [2, 12]: 0% | mortality at 6.25 ppm [2, 12]: 0% | mortality at 12.5 ppm [2, 12]: 0% | mortality at 3.13 ppm [2, 13]: 0% | mortality at 6.25 ppm [2, 13]: 0% | mortality at 12.5 ppm [2, 13]: 0%

Cc1c([S+]([O-])C(F)(Cl)Cl)c(C#N)nn1-c1c(F)cc(C(F)(F)F)cc1Cl (centres unmarked) [Compound 1, 3-cyano-1-(2-chloro-6-fluoro-4-trifluoromethylphenyl)-4-dichlorofluoromethylsulfinyl-5-methyl-1H-pyrazole]
% Efficacy against ticks ([3]; Day 1, Trt. Group 2: 0.1 ml/kg (10 mg/kg) in Triacetin): 94.8% | % Efficacy against ticks ([3]; Day 1, Trt. Group 3: 0.2 ml/kg (20 mg/kg) in Triacetin): 93.9% | % Efficacy against ticks ([3]; Day 1, Trt. Group 4: 10 mg/kg in Diisopropyl adipate): 95.6% | % Efficacy against ticks ([3]; Day 1, Trt. Group 5: 10 mg/kg in Diethylene glycol monoethyl ether (transcutol)): 87.4% | % Efficacy against ticks ([3]; Day 1, Trt. Group 6: 10 mg/kg in Triacetin/diisopropyl adipate): 94.8% | % Efficacy against ticks ([3]; Day 2, Trt. Group 2: 0.1 ml/kg (10 mg/kg) in Triacetin): 99.6% | % Efficacy against ticks ([3]; Day 2, Trt. Group 3: 0.2 ml/kg (20 mg/kg) in Triacetin): 98.9% | % Efficacy against ticks ([3]; Day 2, Trt. Group 4: 10 mg/kg in Diisopropyl adipate): 98.9% | % Efficacy against ticks ([3]; Day 2, Trt. Group 5: 10 mg/kg in Diethylene glycol monoethyl ether (transcutol)): 98.5% | % Efficacy against ticks ([3]; Day 2, Trt. Group 6: 10 mg/kg in Triacetin/diisopropyl adipate): 99.6% | % Efficacy against ticks ([3]; Day 9, Trt. Group 2: 0.1 ml/kg (10 mg/kg) in Triacetin): 100% | % Efficacy against ticks ([3]; Day 9, Trt. Group 3: 0.2 ml/kg (20 mg/kg) in Triacetin): 100% | % Efficacy against ticks ([3]; Day 9, Trt. Group 4: 10 mg/kg in Diisopropyl adipate): 100% | % Efficacy against ticks ([3]; Day 9, Trt. Group 5: 10 mg/kg in Diethylene glycol monoethyl ether (transcutol)): 100% | % Efficacy against ticks ([3]; Day 9, Trt. Group 6: 10 mg/kg in Triacetin/diisopropyl adipate): 100% | % Efficacy against ticks ([3]; Day 16, Trt. Group 2: 0.1 ml/kg (10 mg/kg) in Triacetin): 100% | % Efficacy against ticks ([3]; Day 16, Trt. Group 3: 0.2 ml/kg (20 mg/kg) in Triacetin): 100% | % Efficacy against ticks ([3]; Day 16, Trt. Group 4: 10 mg/kg in Diisopropyl adipate): 100% | % Efficacy against ticks ([3]; Day 16, Trt. Group 5: 10 mg/kg in Diethylene glycol monoethyl ether (transcutol)): 100% | % Efficacy against ticks ([3]; Day 16, Trt. Group 6: 10 mg/kg in Triacetin/diisopropyl adipate): 100% | % Efficacy against ticks ([3]; Day 23, Trt. Group 2: 0.1 ml/kg (10 mg/kg) in Triacetin): 100% | % Efficacy against ticks ([3]; Day 23, Trt. Group 3: 0.2 ml/kg (20 mg/kg) in Triacetin): 100% | % Efficacy against ticks ([3]; Day 23, Trt. Group 4: 10 mg/kg in Diisopropyl adipate): 99.1% | % Efficacy against ticks ([3]; Day 23, Trt. Group 5: 10 mg/kg in Diethylene glycol monoethyl ether (transcutol)): 100% | % Efficacy against ticks ([3]; Day 23, Trt. Group 6: 10 mg/kg in Triacetin/diisopropyl adipate): 100% | % Efficacy against ticks ([3]; Day 30, Trt. Group 2: 0.1 ml/kg (10 mg/kg) in Triacetin): 98.8% | % Efficacy against ticks ([3]; Day 30, Trt. Group 3: 0.2 ml/kg (20 mg/kg) in Triacetin): 100% | % Efficacy against ticks ([3]; Day 30, Trt. Group 4: 10 mg/kg in Diisopropyl adipate): 99.1% | % Efficacy against ticks ([3]; Day 30, Trt. Group 5: 10 mg/kg in Diethylene glycol monoethyl ether (transcutol)): 98.8% | % Efficacy against ticks ([3]; Day 30, Trt. Group 6: 10 mg/kg in Triacetin/diisopropyl adipate): 98.8% | % Efficacy against ticks ([3]; Day 44, Trt. Group 2: 0.1 ml/kg (10 mg/kg) in Triacetin): 94.5% | % Efficacy against ticks ([3]; Day 44, Trt. Group 3: 0.2 ml/kg (20 mg/kg) in Triacetin): 99.4% | % Efficacy against ticks ([3]; Day 44, Trt. Group 4: 10 mg/kg in Diisopropyl adipate): 93.4% | % Efficacy against ticks ([3]; Day 44, Trt. Group 5: 10 mg/kg in Diethylene glycol monoethyl ether (transcutol)): 98.5% | % Efficacy against ticks ([3]; Day 44, Trt. Group 6: 10 mg/kg in Triacetin/diisopropyl adipate): 96.6% | % Efficacy against ticks ([3]; Day 51, Trt. Group 2: 0.1 ml/kg (10 mg/kg) in Triacetin): 90.8% | % Efficacy against ticks ([3]; Day 51, Trt. Group 3: 0.2 ml/kg (20 mg/kg) in Triacetin): 99.3% | % Efficacy against ticks ([3]; Day 51, Trt. Group 4: 10 mg/kg in Diisopropyl adipate): 87.9% | % Efficacy against ticks ([3]; Day 51, Trt. Group 5: 10 mg/kg in Diethylene glycol monoethyl ether (transcutol)): 98.9% | % Efficacy against ticks ([3]; Day 51, Trt. Group 6: 10 mg/kg in Triacetin/diisopropyl adipate): 91.6% | % Efficacy against ticks ([3]; Day 58, Trt. Group 2: 0.1 ml/kg (10 mg/kg) in Triacetin): 74.6% | % Efficacy against ticks ([3]; Day 58, Trt. Group 3: 0.2 ml/kg (20 mg/kg) in Triacetin): 97.6% | % Efficacy against ticks ([3]; Day 58, Trt. Group 4: 10 mg/kg in Diisopropyl adipate): 89.5% | % Efficacy against ticks ([3]; Day 58, Trt. Group 5: 10 mg/kg in Diethylene glycol monoethyl ether (transcutol)): 94.1% | % Efficacy against ticks ([3]; Day 58, Trt. Group 6: 10 mg/kg in Triacetin/diisopropyl adipate): 88.1%

N#Cc1nn(-c2c(Cl)cc(C(F)(F)F)cc2Cl)c(N)c1[S+]([O-])C(F)(F)F (centres unmarked) [fipronil, 5-amino-3-cyano-1-(2,6-dichloro-4-trifluoromethylphenyl)-4-trifluoromethylsulfinylpyrazole]
time detected in the whole skin after treatment [4]: up to 56 days
